Data from patent US20050214738A1, “Conditional allele system” (priority 2003, published 2005).
Where “and” joins values, the source holds several entries; their conditions need not be identical. Identical values can stand only once.

How the values were obtained:
GSK-3βFRB* = GSK-3βFRB* (UniProt P26883+P42345, K2095P/T2098L/W2101F); assay: Stabilization of transfected GSK-3β FRB* in MEFs (Western blot); assay type: cell-based, mouse; design: The minimal FRB domain comprises amino acids 2025-2114 of human mTor; GSK-3β (fusion partner); expressed in transfected cells; host or cells: wild-type mouse embryonic fibroblasts (MEFs); conditions: transiently transfected MEFs, drug for 36 h
Method: MEFs were transfected using FuGENE-6 (Roche Applied Science). Plasmid DNA (5 μg per 6 cm dish) was mixed in a 1:2 ratio with the FuGENE-6 reagent in Opti-MEM (Invitrogen Life Technologies) before being applied to the cells growing in DMEM/10% FCS and containing C20-MaRap where appropriate. After 12 hours, the cells were split to 6 well plates before further drug treatments to ensure each well contained an equivalently transfected population.
Western Blot analysis was carried out using cell lysates prepared in RIPA buffer (10 mM Tris pH 7.2, 150 mM NaCl, 0.1% SDS, 1% Triton X-100, 1% deoxycholate, 5 mM EDTA, protease inhibitor cocktail (Invitrogen Life Technologies)) and then separated using standard SDS/PAGE before being transferred to PVDF (Millipore) using standard Western blotting procedures. The anti-GSK-3β antibody, used at 1:2500, the anti-HSP-90 antibody, 1:2500, and the anti-FKBP12 antibody, 1:2500, were purchased from BD Transduction Labs. The anti-β-catenin antibody, 1:2000, and anti-HSP-70 antibody, 1:1000 were purchased from Santa Cruz Biotechnology. The anti-BRG1 antibody, 1:1000, was previously prepared in our laboratory (Khavari, P. A. et al. “BRG1 Contains a Conserved Domain of the SWI2/SNF2 Family Necessary for Normal Mitotic Growth and Transcription.” (1993) Published in Nature 366, 170-174). […]

FRB = molecular target: T1, FRB (Homo sapiens, UniProt P42345+P62942); assay: SeAP reporter assay, dimerization of FRB-VP16 to FKBP3-GAL4DBD in COS-1 cells; assay type: cell-based
T1 construct: The minimal FRB domain comprises amino acids 2025-2114 of human mTor; expressed in transfected cells; host or cells: COS-1 cells, electroporated with pBJ5-FRBVP, pBJ5-GF3E and pG5IL2SX
Description: Transcription activation by recruitment of chimeric transcriptional activation and DNA binding domains is described. COS-1 cells were electroporated with […] each of the following expression plasmids (Ho, S. N., Biggar, S. R., Spencer, D. M., Schreiber, S. L., and Crabtree, G. R. “Dimeric ligands define a role for transcriptional activation domains in reinitiation.” (1996) Nature 382, 822-826): pG5IL2SX (drives transcription of bacterial secreted alkaline phosphatase (SeAP) through GAL4 DNA binding […] elements), pBJ5-GF3E (which expresses the GAL4 DNA binding domain fused to three copies of human FKBP12), and pBJ5-FRBVP. (which expresses a FRB fusion with the Herpes Simplex Virus VP16 Activation domain) A FRB*-VP16 fusion protein which consists of modified FRB protein fused to the VP16 activation domain was also used selectively. Transfected cells were distributed equally to 96 well plates and were incubated at 37° C. for 24 to 36 hours before media was supplemented with drug in a dilution curve in which each point is represented in quadruplicate. Cells were incubated at 37° C. for an additional 24 hours followed by a 2-hour treatment at 65° C. to inactivate endogenous phosphatases. Each well was supplemented with 100μL of 1 mM methylumbelliferylphosphate dissolved in 2 M diethanolamine buffered to pH 10.0 with carbonate and incubated at 37° C. for 16 hours. Fluorescence was measured with a Fluoroscan (ICN) plate reader at 355 nm transmission and 455 nm emission using Deltasoft software.
Drug efficacy was determined in a three-plasmid transcriptional switch reporter assay. ˜106 COS1 cells were coelectroporated with 2 μg of the DNA binding construct pBJ5-Gal4-FKBP(3), 2 μg pBJ5-VP16 (or the relevant mutant FRB) and 2 μg of the Gal4-SeAP reporter. Electroporation details are available upon request. […] SeAP activity was measured by fluorescence with a Spectamax M2 fluorometer (Molecular Devices, Sunnyvale, Calif.) with transmission set at 355 nm and emmission set at 460 nm. Data was analysed with Softmax Pro (Molecular Devices), Microsoft Excel and Prism 3 (GraphPad Software).

T1 sequence (P42345 2025-2114): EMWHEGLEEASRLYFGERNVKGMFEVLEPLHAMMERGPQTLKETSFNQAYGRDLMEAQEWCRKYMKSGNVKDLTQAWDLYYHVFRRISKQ
T1 sequence (P62942 whole entry, the tested form may be a part): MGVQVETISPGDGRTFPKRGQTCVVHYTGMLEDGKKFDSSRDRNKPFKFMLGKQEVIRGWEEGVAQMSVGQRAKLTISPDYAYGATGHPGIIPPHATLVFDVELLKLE
Chain of GSK-3βFRB* (P42345 2025-2114 K2095P/T2098L/W2101F): as the sequence (P42345 2025-2114) above, with K71P, T74L, W77F counted along it
Chain of GSK-3βFRB* (P26883 2-108): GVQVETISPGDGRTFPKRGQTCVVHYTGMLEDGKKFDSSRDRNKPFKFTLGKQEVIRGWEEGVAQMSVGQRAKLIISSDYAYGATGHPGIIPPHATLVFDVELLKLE

Q: With “C20-(R or S)-methallylrapamycin [C20-MaRap]” as the substance, how does the “GSK-3β FRB* expression” value (GSK-3βFRB*) read?
A: restored GSK-3β FRB* expression to normal

Q: And the Kd (FRB; wild-type FRB)?
A: > 200 nM

Q: And the EC50 (FRB; wild-type FRB(KTW)-VP16, ±95% confidence intervals)?
A: 226 nM and > 200 nM
